Results on two molecules are retold here after patent US20060063736A1, “Compositions and methods for inhibiting mucin-type O-linked glycosylation” (priority 2004, published 2006).

In general, IC50 refers to the concentration that inhibits the measured activity by half. Low readings indicate greater potency in that assay, high ones weaker potency in that assay. By EC50 is commonly meant the concentration giving half of the maximal effect.

One test concerns the target T1, mppGalNAcT-11 (Mus musculus, UniProt Q921L8).
T1 construct: plasmids encoding truncated secreted ppGalNAcTs-1 to −5, -7, -10 and -11; made in house; host or cells: COS-7
T1 sequence (Q921L8 30-608 limits assumed): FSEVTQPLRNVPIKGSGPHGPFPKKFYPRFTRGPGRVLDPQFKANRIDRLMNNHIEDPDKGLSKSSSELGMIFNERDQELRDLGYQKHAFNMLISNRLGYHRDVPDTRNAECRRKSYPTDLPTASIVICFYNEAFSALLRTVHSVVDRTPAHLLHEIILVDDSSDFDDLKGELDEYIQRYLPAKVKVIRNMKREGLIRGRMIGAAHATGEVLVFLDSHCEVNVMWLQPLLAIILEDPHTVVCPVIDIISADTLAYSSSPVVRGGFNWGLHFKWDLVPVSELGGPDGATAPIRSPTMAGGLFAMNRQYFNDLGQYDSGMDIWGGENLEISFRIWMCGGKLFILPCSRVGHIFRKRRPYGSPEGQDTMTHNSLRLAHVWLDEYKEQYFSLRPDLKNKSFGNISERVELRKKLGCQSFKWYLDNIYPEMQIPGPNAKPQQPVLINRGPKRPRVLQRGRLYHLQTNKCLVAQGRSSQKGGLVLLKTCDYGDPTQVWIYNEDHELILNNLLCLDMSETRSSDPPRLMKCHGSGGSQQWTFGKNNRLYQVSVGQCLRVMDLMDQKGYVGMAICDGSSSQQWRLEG
The test is described as follows: ELLA for ppGalNAcTs, mppGalNAcT-11. The test is classed as biochemical, murine. As to conditions: 20 μM UDP-GalNAc, 50 μM EA2 peptide 4. As to the method: COS-7 cells were transiently transfected with plasmids encoding truncated secreted ppGalNAcTs-1 to −5, -7, -10 and -11 as previously described. Hagen et al. (1997) J. Biol. Chem. 272:13843-13848. The crude conditioned medium was used as the enzyme source.
Standard reaction conditions for ppGalNAcT assays were as follows. The reaction mixture contained the following components in a final volume of 25 μL: 10 mM MnCl2, 40 mM sodium cacodylate, 40 mM β-mercaptoethanol, 0.1% Triton X-100, pH 6.5, 5 μL of conditioned media, and various concentrations of EA2 peptide 4, UDP-GalNAc and inhibitor. All uridine-based compounds were dissolved in dimethyl sulfoxide (DMSO). […] Reaction rates were linear over the period monitored (20-30 min).
96-Well NeutrAvidin-coated plates were prewashed 3 times with 200 μL of wash buffer (25 mM Tris, 150 mM NaCl, 0.1% bovine serum albumin (BSA) (w/v), and 0.05% Tween (v/v), pH 7.2). […] After 3 washes with 200 μL of PBS, bound HPA-HRP was quantified by the addition of 100 μL of TMB peroxide solution. […] HRP activity was terminated by the addition of 50 μL of 2 N H2SO4 and the resulting solution was analyzed at 450 nm using a UV/Vis microtiter plate reader. The amount of product generated by the ppGalNAcT was extrapolated from absorbance values using an equation fit to the standard curve derived from Origin 6.1 software.

Test [1] relates to Jurkat cells. The test is described as follows: Annexin-V staining of Jurkat cells (apoptosis). The test is classed as cell-based, human. The conditions noted are these: 2 d treatment. How it is done:
(§1) Jurkat cells were seeded at 250,000 cells/well (determined by Coulter cell counter) in 12-well polystyrene tissue culture plates in 1.0 mL of media and treated with various concentrations of 1-68A or 2-68A from 50 mM dimethyl sulfoxide (DMSO) stock solutions or doxorubicin or campothecin from 1 mM DMSO stock solutions. After 2 d, cells were harvested, washed twice with PBS buffer (PBS, pH 7.4, 0.1% FCS, 0.1% NaN3 w/v) and stained with FITC-HPA (1 μg/mL) or FITC-Con A (5 μg/mL with 1 mM CaCl2) in PBS, pH 7.4 in the dark for 1 h at 4° C. Cells were washed twice with PBS buffer, resuspended in 300 μL of PBS buffer and analyzed by flow cytometry (FacsCaliber, BD Instruments). Annexin-V staining was performed according to the manufacturer's protocols (Invitrogen).
(§2) To directly monitor ppGalNAcT activities in cells, Jurkat cells (human T-cell lymphoma), which are known to produce only the Tn-antigen (FIG. 1) as their O-linked glycans, were chosen. Piller et al. (1990) J. Biol. Chem. 265:9264-9271. Changes in Tn-antigen expression on the surface of Jurkat cells were monitored by HPA binding followed by flow cytometry analysis. Con A staining of N-linked glycans was used as a control for non-specific inhibition of protein glycosylation. Baenziger and Fiete (1979) J. Biol. Chem. 254:2400-2407.

Test [2] has as its system Jurkat cells. In words: HPA staining of Jurkat cells (Tn-antigen), flow cytometry. As to conditions: Homo sapiens, 48 h, read-out: EC50 of inhibition of HPA staining. The test is classed as cell-based, human. How it is done: as §1, §2
A general note: A flow cytometer gives signals particle by particle.

Read-outs that look alike come from different tables or passages of the source.

Take `O=c1ccn([C@@H]2O[C@H](CON=Cc3ccc(O)c(O)c3O)[C@@H](O)[C@H]2O)c(=O)[nH]1` [1-68A]: at mppGalNAcT-11, inhibition was half-maximal at 39 ± 3 µM (IC50). Also, the “Annexin-V staining (induction of apoptosis)” value with Jurkat cells [1] is “confirmed the induction of apoptosis”. Besides, the EC50 in the test with Jurkat cells [2] (Jurkat cells, 2 d treatment) is roughly 80 µM.
As for `O=C(CON=Cc1ccc(O)c(O)c1O)NC[C@H]1O[C@@H](n2ccc(=O)[nH]c2=O)[C@H](O)[C@@H]1O` [2-68A], the IC50 against mppGalNAcT-11 came to 32 ± 3 µM. Besides, in the test on Jurkat cells [1], the “Annexin-V staining (induction of apoptosis)” value is recorded as “confirmed the induction of apoptosis”. The EC50 with Jurkat cells [2] (Jurkat) is roughly 80 µM.
